The text below walks through data of US10080811B2, “Diagnostic marker compounds and their use” (University of Leeds, priority 2012, dated 2018).

For data set [1], the system named is SH-SY5Y cells. Particulars: 500 μM H2O2 24 hours before, 24 hours exposure. The method, then:
Cytoprotective effect tests were performed on SH-SY5Y cells that had previously been exposed to hydrogen peroxide for 24 hours.

Data set [2] concerns C57BL/6J mice. The note with it: IP injection. On the procedure:
After 24 hours mice were perfused transcardially with 0.9% saline followed by 4% paraformaldehyde. Brains, arteries, heart, liver kidneys were removed, post-fixed and […] sections were cut on a vibratome (Leica Microsystems, Germany) The sections were mounted on slides, dried at 4° C., cover slipped using vectashield mounting medium and examined using a Zeiss laser scanning confocal microscope (LSM 510).

Each structure is given as a SMILES string.

Regarding `O=[N+]([O-])[O-].O=[N+]([O-])[O-].O=[N+]([O-])[O-].[Ce+3]` [cerium nitrate], in data set [1], the “cytoprotective potency, comparison of the two nitrates” value is recorded as “more potent antioxidant-based cytoprotective agent compared to europium nitrate”. Moreover, the “effect on hydrogen peroxide's cytotoxicity” value in data set [1] (n=80) is “significantly inhibiting hydrogen peroxide's cytotoxicity”.
On to `O=[N+]([O-])[O-].O=[N+]([O-])[O-].O=[N+]([O-])[O-].[Eu+3]` [europium nitrate], for which the “blood brain barrier passage (labelling in the brain tissue)” value in data set [2] was “cross the blood brain barrier”. Moreover, in data set [2] (100 μM solution, 24 hours), the “highest number of fluorescent peaks, brain tissue” value is not below 20 peaks per 100 μm^2 area; the “highest number of fluorescent peaks, heart tissue” value was not above 1 peaks in a 100 μm^2 area; the “highest number of fluorescent peaks, liver tissue” value is reported as less than 10 peaks in a 100 μm^2 area; the “highest number of fluorescent peaks, lung tissue” value was not above 1 peaks in a 100 μm^2 area. The “uptake into hepatocytes in liver tissue” value in data set [2] (higher magnifications) was “had entered the hepatocytes”.
